Assay results as given in patent publication US20240059658A1 (Emory University, priority 2019, published 2024).

How the values were obtained:
MDM2 = target: T1, MDM2 (Homo sapiens, UniProt Q00987); assay: MDM2 reduction / expression (Western blot); format: cell-based; conditions: words or +/− grades, key not given
T1 construct: ubiquitination of endogenous MDM2 in EU-1 cells; endogenous in cells; host or cells: EU-1 (ALL) cells
Description: (§1) Cells were lysed in a buffer composed of 50 mM Tris, pH 7.6, 150 mM NaCl, 1% Nonidet P-40, 10 mM sodium phosphate, 10 mM NaF, 1 mM sodium orthovanadate, 2 mM phenylmethylsulfonyl fluoride (PMSF), […], 10 μg/mL leupeptin and 10 μg/mL pepstatin. After centrifugation, the clarified cell lysate was separated from the pellet of cell debris, and then incubated with 15 μL Protein G/Protein A-agarose and 1 μg of antibodies, overnight at 4° C. For the Western blot, the resulting cell lysates or immunoprecipitates were resolved by SDS-PAGE. They were then transferred to a nitrocellulose filter and probed with the specific antibodies as listed in the supplemental Materials section. Finally, proteins were visualized with a chemiluminescent detection system.

p53 = p53 induction / expression (Western blot); format: cell-based; conditions: words or +/− grades, key not given
Description: as §1

XIAP = XIAP inhibition / expression (Western blot); format: cell-based; conditions: MDM2 reduction
Description: as §1

EU-1 = assay: WST cytotoxicity assay, cancer cell EU-1; format: cell-based, human; conditions: Homo sapiens, EU-1, EU-1; no other cell line named in the cell; read-out: Cancer cell (EU-1) cytotoxicity IC50
How it was run: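 Pediatric ALL and NB lines grown in RPMI 1640 with 10% FBS at 37 °C, 5% CO2. Cells were exposed to a range of compound concentrations for 20 h, then WST (25 μg/well) was added for a further 4 h. OD read at 450 nm against a 620 nm reference.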

NB-1643 = assay: WST cytotoxicity assay, NB-1643; format: cell-based; conditions: Homo sapiens; NB-1643 line; read-out: Cancer cell cytotoxicity IC50
Description: This study used two ALL cell lines (EU-1 and EU-3) and three NB cell lines (NB-1643, SHEP1 and LA1-55N). All 5 cancer cell lines were established from pediatric ALL or NB patients and were well-characterized for their expression of MDM2 and p53-status, as reported previously. All cell lines were grown in standard culture medium (RPMI 1640 containing 10% FBS, 2 mmol/L L-glutamine, 50 U penicillin and 50 μg/mL streptomycin) at 37° C. in a humidified atmosphere containing 5% CO2.
(§2) The cytotoxic effect of MX 69 and MX69 analogs on cancer cells was determined using the water-soluble tetrazolium salt (WST) assay. Briefly, cells cultured in 96-well microtiter plates were treated with different concentrations of AQ-101 for a 20-h period. WST (25 μg/well) was then added and incubation continued for an additional 4 h, after which optical density (OD) was read with a microplate reader (test wavelength of 450 nm; reference wavelength of 620 nm).

855 line = assay: WST cytotoxicity assay, 855 line; format: cell-based; conditions: read-out: Cancer cell cytotoxicity IC50
Description: as §2

697 cell line = assay: WST cytotoxicity assay, 697 cell line; format: cell-based; conditions: read-out: Cancer cell cytotoxicity IC50
Description: as §2

T1 sequence (Q00987 whole entry): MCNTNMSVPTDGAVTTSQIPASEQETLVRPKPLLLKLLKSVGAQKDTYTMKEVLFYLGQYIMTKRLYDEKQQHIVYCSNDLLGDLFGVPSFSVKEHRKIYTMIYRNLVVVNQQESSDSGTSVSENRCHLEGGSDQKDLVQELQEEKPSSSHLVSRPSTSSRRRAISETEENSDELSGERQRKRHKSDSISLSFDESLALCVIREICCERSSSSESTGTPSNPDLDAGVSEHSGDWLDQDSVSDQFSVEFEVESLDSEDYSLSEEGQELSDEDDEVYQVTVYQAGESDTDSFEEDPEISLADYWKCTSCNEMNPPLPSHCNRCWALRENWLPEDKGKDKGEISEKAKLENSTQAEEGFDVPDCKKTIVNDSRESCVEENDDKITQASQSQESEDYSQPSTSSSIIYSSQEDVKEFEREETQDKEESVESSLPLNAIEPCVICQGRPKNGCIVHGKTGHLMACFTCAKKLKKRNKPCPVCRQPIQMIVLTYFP

MDM2 reduction (MDM2) | Structure (SMILES) | p53 induction (p53) | XIAP inhibition (XIAP) | IC50 (EU-1) | IC50 (NB-1643) | IC50 (855 line) | IC50 (697 cell line)
inhibition | Cc1ccc(NS(=O)(=O)c2ccc3c(c2)C(=O)C[C@@H](c2ccc(C(=O)C(C)C)cc2)N3)cc1C (stereo in doubt) [Compound 69L84, N-(3,4-dimethylphenyl)-2-(4-isobutyrylphenyl)-4-oxo-1,2,3,4-tetrahydroquinoline-6-sulfonamide] | activation | inhibition | 200 to 600 nM |  |  | 
No MDM2 | CC(=O)c1ccc(C2Nc3ccc(S(=O)(=O)Nc4ccc(C)c(C)c4)cc3[C@H]3OCC[C@@H]23)cc1 (stereo partly drawn) [Compound 69L38] |  |  |  | 1820 nM | 490 nM | 
inhibition | Cc1ccc(NS(=O)(=O)c2ccc3c(c2)C2OCC[C@H]2[C@H](C2CCOCC2)N3)cc1C (stereo partly drawn) [Compound 69L58, N-(3,4-dimethylphenyl)-4-(tetrahydro-2H-pyran-4-yl)-2,3,3a,4,5,9b-hexahydrofuran[3,2-c]quinolone-8-sulfonamine] | induction |  |  | 2630 nM | 1610 nM | 
No MDM2 | O=S(=O)(Nc1ccc2c(c1)CCCC2)c1ccc2c(c1)C1OCC[C@H]1[C@H](C1CCCCC1)N2 (stereo partly drawn) [Compound 69L59, 4-cyclohexyl-N-(5,6,7,8-tetrahydronaphthalen-2-yl)-2,3,3a,4,5,9b-hexahydrofuran[3,2-c]quinolone-8-sulfonamine] |  |  |  | 3090 nM | 2310 nM | 
inhibition | CC(=O)c1ccc(NS(=O)(=O)c2ccc3c(c2)[C@H]2OCC[C@H]2C(c2ccc(C(=O)C(C)C)cc2)N3)cc1 (stereo partly drawn) [Compound 69L98, N-(4-acetylphenyl)-4-(4-isobutyrylphenyl)-2,3,3a,4,5,9b-hexahydrofuro[3,2-c]quinoline-8-sulfonamide] | induction |  | 1500 nM |  |  | 

Continued, compound first:

Structure (SMILES) | MDM2 reduction (MDM2) | p53 induction (p53) | XIAP inhibition (XIAP) | IC50 (EU-1) | IC50 (NB-1643) | IC50 (855 line) | IC50 (697 cell line)
CC(=O)c1cccc(NS(=O)(=O)c2ccc3c(c2)[C@H]2OCC[C@H]2C(c2ccc(C(=O)C(C)C)cc2)N3)c1 (stereo in doubt) [Compound 69L102, N-(3-acetylphenyl)-4-(4-isobutyrylphenyl)-2,3,3a,4,5,9b-hexahydrofuro[3,2-c]quinoline-8-sulfonamide] | inhibition |  | inhibition | 230 nM |  |  | 
COC(=O)c1ccc([C@H]2CC(O)c3cc(S(=O)(=O)Nc4ccc(C)c(C)c4)ccc3N2)cc1 (stereo partly drawn) [Compound 69L39] | No MDM2 |  |  |  | 1610 nM | 680 nM | 
Cc1ccc(NS(=O)(=O)c2ccc3c(c2)C2OCC[C@H]2C(c2cccc4ccccc24)N3)cc1C (stereo partly drawn) [Compound 69L63] |  | induction |  |  |  | 6070 nM | 3.94 µM
Cc1ccc(NS(=O)(=O)c2ccc3c(c2)[C@H]2NCC[C@H]2[C@@H](c2ccc(C(=O)C(C)C)cc2)N3)cc1C [Compound 69L81] | inhibition | inhibition | inhibition | 3200 nM |  |  | 
CC(=O)c1ccc(C2CC(=O)c3cc(S(=O)(=O)Nc4ccc(C)c(C)c4)ccc3N2)cc1 (stereo not drawn) [Compound 69L83, 2-(4-acetylphenyl)-N-(3,4-dimethylphenyl)-4-oxo-1,2,3,4-tetrahydroquinoline-6-sulfonamide] | inhibition | inhibition |  | 1170 nM |  |  | 
CC(=O)c1cccc(NS(=O)(=O)c2ccc3c(c2)C(=O)CC(c2ccc(C(=O)C(C)C)cc2)N3)c1 (stereo not drawn) [Compound 69L113, N-(3-acetylphenyl)-2-(4-isobutyrylphenyl)-4-oxo-1,2,3,4-tetrahydro-quinoline-6-sulfonamide] | inhibition |  | inhibition | < 100 nM |  |  | 
Cc1ccc(NS(=O)(=O)c2ccc3c(c2)C(=O)CC(c2cccc(C(=O)C(C)C)c2)N3)cc1C (stereo not drawn) [Compound 69L114, N-(3,4-dimethylphenyl)-2-(3-isobutyrylphenyl)-4-oxo-1,2,3,4-tetrahydroquinoline-6-sulfonamide] | inhibition |  | inhibition | < 100 nM |  |  | 
